Measurements as given in patent US11013696B2, “Lipids and lipid compositions for the delivery of active agents” (Novartis AG, priority 2013, dated 2021).

How the values were obtained:
[1] = test system: RSV F protein; assay: RSV immunogenicity: IgG titers after two IM immunizations with vA375 RNA expressing RSV-F in LNPs; assay type: in vivo, BALB/c mice; conditions: IM days 0 and 21, two weeks after two immunizations
[2] = Percent encapsulation of plasmid DNA in lipid nanoparticles (Quant-iT Ribogreen); assay type: physicochemical
Experimental: All equipment and disposable supplies are certified free of RNase activity by the manufacturer or rendered RNase free by use of the RNaseZap reagent (LifeTechnologies). Plasmid is encapsulated at a cationic lipid amine to DNA phosphate (N:P) molar ratio of 4:1. Lipids (cationic lipid, DSPC, cholesterol and lipidated PEG) are dissolved in ethanol. The molar ratios are 40:10:38:2, respectively. The mixture is sonicated briefly, then gently agitated for 5 minutes and then maintained at 37° C. until use. Plasmid is exchanged into citrate buffer pH 6.0 by use of Amicon Ultra-15 centrifugal concentrators, and the final concentration is adjusted to 0.053 mg/ml and held at 37° C. until use. An equal volume of lipids in ethanol, plasmid in citrate buffer, and citrate buffer alone are drawn into disposable syringes. Tubing leading from syringes containing lipids and DNA are attached to the T junction, and tubing leading from the syringe containing citrate buffer alone is paired with the tubing exiting the T-junction over a collection vessel containing a stir bar on an active stir plate. Syringes are placed in a syringe pump set to expel contents at a flow rate of 1 ml per minute. The pump is activated, and the collected DNA in lipid nanoparticles is transferred to SnakeSkin dialysis tubing (10,000 MWCO, Thermo Scientific). Material is dialyzed against RNAse- and pyrogen-free 1× phosphate buffered saline overnight at 4° C.
Percent encapsulation of plasmid DNA in lipid nanoparticles is determined using the Quant-iT Ribogreen RNA Assay kit (Life Technologies). The LNP-DNA suspension is assayed in buffer (DNA outside the particle), and buffer plus Triton X-100 detergent (total DNA). The difference calculated is the DNA inside the particle. Prepare a 1000 ng/mL stock using unpackaged plasmid and use this to generate a standard curve (0 ng/ml, 15.63-1000 ng/ml) in TE and TE+0.75% Triton X-100. Prepare LNP-plasmid samples in TE buffer and TE buffer+0.75% Triton X-100 with appropriate dilution so that reading is in the range of standard curve (25 fold). In a 384-well plate (Costar non-treated #3573) add 0.04 ml of standard (in duplicate) or sample (in triplicate) per well. Dilute Ribogreen reagent 240-fold in TE buffer and add 0.06 ml per well. Mix contents of wells and measure fluorescence (excitation=480 nm, emission=520 nm). Subtract background values (no DNA) from standard and test sample values and determine the concentrations of DNA in the samples using the standard curves. Determine the percent encapsulation of the sample by dividing the difference in concentrations between sample+triton and sample in buffer alone by the sample+triton concentration.

[3] = siRNA encapsulation in lipid nanoparticles (SYBR Gold); assay type: physicochemical; conditions: for % Encap.: FVII siRNA; for % encapsulation siRNA FVII: Table 2, FVII siRNA in LNP with the cationic lipid
Summary of the method: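 SYBR Gold fluorescence (ex 485/em 530 nm) of LNPs made by impinging-jet mixing of ethanolic lipids (cationic, cholesterol, optional DSPC, PEG/stealth lipid) with siRNA in citrate pH 4-6, siRNA:lipid ~0.05 wt/wt. Samples with and without Triton X-100 gave free and total siRNA for encapsulation efficiency.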

| % Encap. ([2]; hLep plasmid) | % Encap. ([2]; pDNA) | % Encap. [3] | Compound | Immunogenicity (2wp2, log10 IgG titers) ([1]; 0.1 ng vA375 RNA) | Immunogenicity (2wp2, log10 IgG titers) ([1]; 1 ng vA375 RNA) | % encapsulation siRNA FVII [3] |
| --- | --- | --- | --- | --- | --- | --- |
| 96.7% | 96.4% | 88.9% | CCCCCCCCCCCCC(CCOC(=O)CCCCC(OCCCCCCCC)OCCCCCCCC)OC(=O)OCCCN(CC)CC (centres unmarked) [Example 16, 3-(((3-(diethylamino)propoxy)carbonyl)oxy)pentadecyl 6,6-bis(octyloxy)hexanoate] | – | – | 88.9% |
| – | – | – | CCCCCCCCCCCCC(CCOC(=O)CCCCC(OCC(CC)CCCC)OCC(CC)CCCC)OC(=O)OCCCN(CC)CC (centres unmarked) [Example 18, 3-(((3-(diethylamino)propoxy)carbonyl)oxy)pentadecyl 6,6-bis((2-ethylhexyl)oxy)hexanoate] | 3.5 log10 IgG titers | 4.26 log10 IgG titers | 91.2% |
| – | – | – | CCCCCCCCCC(=O)OCCC(CC(CCCCCCCC)CCCCCCCC)OC(=O)OCCCN(C)C (centres unmarked) [Example 70, 3-(((3-(dimethylamino)propoxy)carbonyl)oxy)-5-octyltridecyl decanoate] | 3.90 log10 IgG titers | 4.37 log10 IgG titers | 80.0% |
| 95.0% | 89.3% | 74.8% | CCCCC/C=C\C/C=C\CCCCCCCCC(CCC(=O)OC(COC(=O)CCCCCCC)COC(=O)CCCCCCC)OC(=O)OCCCN(C)C (centres unmarked) [Example 94, 2-(((13Z,16Z)-4-(((3-(dimethylamino)propoxy)carbonyl)oxy)docosa-13,16-dienoyl)oxy)propane-1,3-diyl dioctanoate] | – | – | 74.8% |

| Compound | % Encap. ([2]; hLep plasmid) | % Encap. ([2]; pDNA) | % Encap. [3] | Immunogenicity (2wp2, log10 IgG titers) ([1]; 0.1 ng vA375 RNA) | Immunogenicity (2wp2, log10 IgG titers) ([1]; 1 ng vA375 RNA) | % encapsulation siRNA FVII [3] |
| --- | --- | --- | --- | --- | --- | --- |
| CCCCCCCCCCCCC(CCOC(=O)CCCCC(COC(=O)CCCCCCC)COC(=O)CCCCCCC)OC(=O)OCCCN(CC)CC (centres unmarked) [Example 1, 2-(10-dodecyl-3-ethyl-8,14-dioxo-7,9,13-trioxa-3-azaoctadecan-18-yl)propane-1,3-diyl dioctanoate] | 93.5% | 94.3% | – | 3.98 log10 IgG titers | 4.22 log10 IgG titers | – |
| CCCCC/C=C\C/C=C\CCCCCCCC(=O)OCC(COC(=O)CCCCCCC/C=C\C/C=C\CCCCC)OC(=O)CCC(CCCCCCCCCCCC)OC(=O)OCCCN(C)C (centres unmarked) [Example 80, (9Z,9′Z,12Z,12′Z)-2-((4-(((3-(dimethylamino)propoxy)carbonyl)oxy)hexadecanoyl)oxy)propane-1,3-diyl bis(octadeca-9,12-dienoate)] | – | – | 85.2% | – | – | 85.2% |
